In PubChem BioAssay (NCI):
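Assay format: 96-well plates, 48-hour exposure. GI50 marks 50% less growth. TGI: total growth inhibition.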

What was measured:
Test in all cases: inhibition of tumour cell growth, NCI panel, 48 h
K-562 leukemia = tested on: K-562 leukemia
OVCAR-4 ovarian = tested on: OVCAR-4 ovarian
SN12C renal = tested on: SN12C renal
SK-MEL-5 melanoma = tested on: SK-MEL-5 melanoma
M14 melanoma = tested on: M14 melanoma
MCF7 breast = tested on: MCF7 breast
RPMI-8226 leukemia = tested on: RPMI-8226 leukemia
HOP-92 NSCLC = tested on: HOP-92 NSCLC
MDA-N = tested on: MDA-N
HCC-2998 colon = tested on: HCC-2998 colon
CAKI-1 renal = tested on: CAKI-1 renal
T-47D breast = tested on: T-47D breast
MDA-MB-231 breast = tested on: MDA-MB-231 breast
UACC-257 melanoma = tested on: UACC-257 melanoma
PC-3 prostate = tested on: PC-3 prostate
RXF 393 renal = tested on: RXF 393 renal
SF-268 CNS = tested on: SF-268 CNS
KM12 colon = tested on: KM12 colon
HL-60(TB) leukemia = tested on: HL-60(TB) leukemia
SK-MEL-28 melanoma = tested on: SK-MEL-28 melanoma
IGROV1 ovarian = tested on: IGROV1 ovarian
SNB-75 CNS = tested on: SNB-75 CNS
MALME-3M melanoma = tested on: MALME-3M melanoma
NCI-H23 lung = tested on: NCI-H23 lung
786-0 renal = tested on: 786-0 renal
MDA-MB-435 = tested on: MDA-MB-435
UACC-62 melanoma = tested on: UACC-62 melanoma
EKVX NSCLC = tested on: EKVX NSCLC
SK-OV-3 ovarian = tested on: SK-OV-3 ovarian
LOX IMVI melanoma = tested on: LOX IMVI melanoma
SR leukemia = tested on: SR leukemia
HCT-15 colon = tested on: HCT-15 colon
TK-10 renal = tested on: TK-10 renal
OVCAR-8 ovarian = tested on: OVCAR-8 ovarian
SF-295 CNS = tested on: SF-295 CNS
CCRF-CEM leukemia = tested on: CCRF-CEM leukemia
COLO 205 colon = tested on: COLO 205 colon
DU-145 prostate = tested on: DU-145 prostate
SW-620 colon = tested on: SW-620 colon
HT29 colon = tested on: HT29 colon
A549 NSCLC = tested on: A549 NSCLC
HOP-62 NSCLC = tested on: HOP-62 NSCLC
MOLT-4 leukemia = tested on: MOLT-4 leukemia
SK-MEL-2 melanoma = tested on: SK-MEL-2 melanoma
NCI-H460 lung = tested on: NCI-H460 lung
NCI-H226 lung = tested on: NCI-H226 lung
NCI/ADR-RES ovarian = tested on: NCI/ADR-RES ovarian
OVCAR-5 ovarian = tested on: OVCAR-5 ovarian
NCI-H522 lung = tested on: NCI-H522 lung
HCT-116 colon = tested on: HCT-116 colon
SNB-19 CNS = tested on: SNB-19 CNS
U251 CNS = tested on: U251 CNS
UO-31 renal = tested on: UO-31 renal
OVCAR-3 ovarian = tested on: OVCAR-3 ovarian
SF-539 CNS = tested on: SF-539 CNS
A498 renal = tested on: A498 renal
ACHN renal = tested on: ACHN renal
HS 578T breast = tested on: HS 578T breast
BT-549 breast = tested on: BT-549 breast

CCOC(=O)CSc1[nH]c(NC(=S)Nc2ccccc2)c(C(N)=O)c1C(N)=O
TGI (K-562 leukemia): > 10 µM
TGI (OVCAR-4 ovarian): > 10 µM
TGI (SN12C renal): > 10 µM
TGI (SK-MEL-5 melanoma): > 10 µM
TGI (M14 melanoma): > 10 µM
TGI (MCF7 breast): > 10 µM
TGI (RPMI-8226 leukemia): > 10 µM
TGI (HOP-92 NSCLC): > 10 µM
TGI (MDA-N): > 10 µM
TGI (HCC-2998 colon): > 10 µM
TGI (CAKI-1 renal): > 10 µM
TGI (T-47D breast): > 10 µM
TGI (MDA-MB-231 breast): > 10 µM
TGI (UACC-257 melanoma): > 10 µM
TGI (PC-3 prostate): > 10 µM
TGI (RXF 393 renal): > 10 µM
TGI (SF-268 CNS): > 10 µM
TGI (KM12 colon): > 10 µM
TGI (HL-60(TB) leukemia): 4.78 µM
TGI (SK-MEL-28 melanoma): > 10 µM
TGI (IGROV1 ovarian): > 10 µM
TGI (SNB-75 CNS): > 10 µM
TGI (MALME-3M melanoma): > 10 µM
TGI (NCI-H23 lung): > 10 µM
TGI (786-0 renal): > 10 µM
TGI (MDA-MB-435): > 10 µM
TGI (UACC-62 melanoma): > 10 µM
TGI (EKVX NSCLC): > 10 µM
TGI (SK-OV-3 ovarian): > 10 µM
TGI (LOX IMVI melanoma): > 10 µM
TGI (SR leukemia): > 10 µM
TGI (HCT-15 colon): > 10 µM
TGI (TK-10 renal): > 10 µM
TGI (OVCAR-8 ovarian): > 10 µM
TGI (SF-295 CNS): > 10 µM
TGI (CCRF-CEM leukemia): > 10 µM
TGI (COLO 205 colon): > 10 µM
TGI (DU-145 prostate): > 10 µM
TGI (SW-620 colon): > 10 µM
TGI (HT29 colon): > 10 µM
TGI (A549 NSCLC): > 10 µM
TGI (HOP-62 NSCLC): > 10 µM
TGI (MOLT-4 leukemia): > 10 µM

O=C(Nc1ccccc1)Nc1cccc(Oc2nnc(Cl)c3ccccc23)c1
GI50 (K-562 leukemia): 6.21 µM
TGI (K-562 leukemia): > 25 µM
GI50 (OVCAR-4 ovarian): 1.74 µM
TGI (OVCAR-4 ovarian): 12.2 µM
GI50 (SN12C renal): 6.72 µM
TGI (SN12C renal): > 25 µM
GI50 (SK-MEL-5 melanoma): 4.56 µM
TGI (SK-MEL-5 melanoma): 18.6 µM
GI50 (SK-MEL-2 melanoma): 3.9 µM
TGI (SK-MEL-2 melanoma): 13.2 µM
GI50 (M14 melanoma): 6.15 µM
TGI (M14 melanoma): > 25 µM
GI50 (MCF7 breast): 1.32 µM
TGI (MCF7 breast): 6.32 µM
GI50 (NCI-H460 lung): 2.67 µM
TGI (NCI-H460 lung): 8.65 µM
GI50 (RPMI-8226 leukemia): 4.45 µM
TGI (RPMI-8226 leukemia): 24.3 µM
GI50 (NCI-H226 lung): 1.95 µM
TGI (NCI-H226 lung): 9.25 µM
GI50 (HOP-92 NSCLC): 3.09 µM
TGI (HOP-92 NSCLC): 11.3 µM
GI50 (NCI/ADR-RES ovarian): 2.63 µM
TGI (NCI/ADR-RES ovarian): 6.39 µM
GI50 (HCC-2998 colon): 4.2 µM
TGI (HCC-2998 colon): 12.2 µM
GI50 (CAKI-1 renal): 3.34 µM
TGI (CAKI-1 renal): 14.3 µM
GI50 (OVCAR-5 ovarian): 5.61 µM
TGI (OVCAR-5 ovarian): 15.3 µM
GI50 (T-47D breast): 0.863 µM
TGI (T-47D breast): 10.8 µM
GI50 (MDA-MB-231 breast): 4.76 µM
TGI (MDA-MB-231 breast): 12.3 µM
GI50 (UACC-257 melanoma): 3.96 µM
TGI (UACC-257 melanoma): > 25 µM
GI50 (NCI-H522 lung): 2.8 µM
TGI (NCI-H522 lung): 9.68 µM
GI50 (PC-3 prostate): 3.26 µM
TGI (PC-3 prostate): 10.6 µM
GI50 (HCT-116 colon): 3.06 µM
TGI (HCT-116 colon): 9.77 µM
GI50 (RXF 393 renal): 2.69 µM
TGI (RXF 393 renal): 6.24 µM
GI50 (SNB-19 CNS): 1.67 µM
TGI (SNB-19 CNS): 8.46 µM
GI50 (SF-268 CNS): 2.89 µM
TGI (SF-268 CNS): 7.57 µM
GI50 (KM12 colon): 5.51 µM
TGI (KM12 colon): > 25 µM
GI50 (HL-60(TB) leukemia): 2.7 µM
TGI (HL-60(TB) leukemia): > 25 µM
GI50 (SK-MEL-28 melanoma): 3.57 µM
TGI (SK-MEL-28 melanoma): 12.7 µM
GI50 (IGROV1 ovarian): 3.32 µM
TGI (IGROV1 ovarian): 7.92 µM
GI50 (SNB-75 CNS): 1.08 µM
TGI (SNB-75 CNS): 5.9 µM
GI50 (MALME-3M melanoma): 1.62 µM
TGI (MALME-3M melanoma): 5.93 µM
GI50 (NCI-H23 lung): 3.72 µM
TGI (NCI-H23 lung): 9.44 µM
GI50 (U251 CNS): 2.14 µM
TGI (U251 CNS): 5.2 µM
GI50 (UO-31 renal): 3.98 µM
TGI (UO-31 renal): 19.6 µM
GI50 (786-0 renal): 3.6 µM
TGI (786-0 renal): 8.18 µM
GI50 (MDA-MB-435): 7.54 µM
TGI (MDA-MB-435): > 25 µM
GI50 (UACC-62 melanoma): 6.84 µM
TGI (UACC-62 melanoma): > 25 µM
GI50 (EKVX NSCLC): 2.31 µM
TGI (EKVX NSCLC): 12.1 µM
GI50 (SK-OV-3 ovarian): 1.46 µM
TGI (SK-OV-3 ovarian): 5.51 µM
GI50 (OVCAR-3 ovarian): 2.64 µM
TGI (OVCAR-3 ovarian): 5.97 µM
GI50 (LOX IMVI melanoma): 3.46 µM
TGI (LOX IMVI melanoma): 6.8 µM
GI50 (SR leukemia): 1.93 µM
TGI (SR leukemia): 8.26 µM
GI50 (SF-539 CNS): 2.81 µM
TGI (SF-539 CNS): 6.4 µM
GI50 (HCT-15 colon): 3.54 µM
TGI (HCT-15 colon): 12.9 µM
GI50 (TK-10 renal): 6.08 µM
TGI (TK-10 renal): 14.9 µM
GI50 (A498 renal): 3.45 µM
TGI (A498 renal): 13.1 µM
GI50 (OVCAR-8 ovarian): 2.6 µM
TGI (OVCAR-8 ovarian): 6.53 µM
GI50 (SF-295 CNS): 2.07 µM
TGI (SF-295 CNS): 5.63 µM
GI50 (CCRF-CEM leukemia): 4.44 µM
TGI (CCRF-CEM leukemia): > 25 µM
GI50 (COLO 205 colon): 5.24 µM
TGI (COLO 205 colon): > 25 µM
GI50 (DU-145 prostate): 3.01 µM
TGI (DU-145 prostate): 10.5 µM
GI50 (ACHN renal): 3.47 µM
TGI (ACHN renal): 18.7 µM
GI50 (HS 578T breast): 2.12 µM
TGI (HS 578T breast): 10.4 µM
GI50 (SW-620 colon): 8.41 µM
TGI (SW-620 colon): > 25 µM
GI50 (HT29 colon): 5.26 µM
TGI (HT29 colon): > 25 µM
GI50 (A549 NSCLC): 3.47 µM
TGI (A549 NSCLC): 18.4 µM
GI50 (HOP-62 NSCLC): 2.52 µM
TGI (HOP-62 NSCLC): 6.54 µM
GI50 (BT-549 breast): 3.06 µM
TGI (BT-549 breast): 10.8 µM
GI50 (MOLT-4 leukemia): 2.6 µM
TGI (MOLT-4 leukemia): 11.4 µM

CCOC(=O)C(O)(NC(=O)NC(O)(C(=O)OCC)C(F)(F)F)C(F)(F)F (stereo unspecified)
TGI (K-562 leukemia): > 100 µM
TGI (SN12C renal): > 100 µM
TGI (SK-MEL-2 melanoma): > 100 µM
TGI (RPMI-8226 leukemia): > 100 µM
TGI (NCI/ADR-RES ovarian): > 100 µM
TGI (MDA-N): > 100 µM
TGI (HCC-2998 colon): > 100 µM
TGI (OVCAR-5 ovarian): > 100 µM
TGI (UACC-257 melanoma): > 100 µM
TGI (PC-3 prostate): > 100 µM
TGI (HCT-116 colon): > 100 µM
TGI (RXF 393 renal): > 100 µM
TGI (SNB-19 CNS): > 100 µM
TGI (SF-268 CNS): > 100 µM
TGI (HL-60(TB) leukemia): > 100 µM
TGI (SK-MEL-28 melanoma): > 100 µM
TGI (SNB-75 CNS): > 100 µM
TGI (NCI-H23 lung): > 100 µM
TGI (U251 CNS): > 100 µM
TGI (UO-31 renal): > 100 µM
TGI (786-0 renal): > 100 µM
TGI (SK-OV-3 ovarian): > 100 µM
TGI (LOX IMVI melanoma): > 100 µM
TGI (SR leukemia): > 100 µM
TGI (SF-539 CNS): > 100 µM
TGI (HCT-15 colon): > 100 µM
TGI (A498 renal): > 100 µM
TGI (CCRF-CEM leukemia): > 100 µM
TGI (COLO 205 colon): > 100 µM
TGI (ACHN renal): > 100 µM
TGI (HT29 colon): > 100 µM
TGI (MOLT-4 leukemia): > 100 µM
